US8481502B2, “Antibacterial aminoglycoside analogs” (Achaogen, Inc., priority 2009, dated 2013)
Converted amounts (≈) assume the structure as drawn.

How the values were obtained:
[1] = test system: E. coli ATCC 25922 (AECO001); assay: MIC assay, CLSI broth microdilution, AECO001; format: cell-based; settings: Escherichia coli; AECO001 is ATCC25922; Mueller Hinton Broth, 35 C, 20 hours
Description: (§1) Minimum inhibitory concentrations (MIC) were determined by reference Clinical and Laboratory Standards Institute (CLSI) broth microdilution methods per M7-A7 [2006]. Quality control ranges utilizing E. coli ATCC 25922, P. aeruginosa ATCC 27853 and S. aureus ATCC 29213, and interpretive criteria for comparator agents were as published in CLSI M100-S17 [2007]. Briefly, serial two-fold dilutions of the test compounds were prepared at 2× concentration in Mueller Hinton Broth. The compound dilutions were mixed in 96-well assay plates in a 1:1 ratio with bacterial inoculum. The inoculum was prepared by suspension of a colony from an agar plate that was prepared the previous day. Bacteria were suspended in sterile saline and added to each assay plate to obtain a final concentration of 5×10^5 CFU/mL. The plates were incubated at 35 C for 20 hours in ambient air.

[2] = test system: P. aeruginosa ATCC 27853 (APAE001); assay: MIC assay, CLSI broth microdilution, APAE001; format: cell-based; settings: Pseudomonas aeruginosa; APAE001 is ATCC27853; Mueller Hinton Broth, 35 C, 20 hours
Description: as §1

| Structure (SMILES) | MIC [1] [µg/mL] | MIC [2] [µg/mL] |
| --- | --- | --- |
| NC[C@@H]1O[C@H](O[C@H]2[C@@H](O)[C@H](O[C@@H]3[C@@H](O)[C@H](NC(=O)[C@@H](O)C(F)(F)CN)C[C@H](N)[C@H]3O[C@H]3O[C@H](CN)[C@@H](O)C[C@H]3N)O[C@@H]2CO)[C@H](N)[C@@H](O)[C@@H]1O [4/3] | 1 to 16 (≈ 1.36 to 21.7 µM) | ≤ 1 |
| NC[C@@H]1C[C@@H](O)[C@@H](N)[C@@H](O[C@H]2[C@H](O[C@@H]3O[C@H](CO)[C@@H](O[C@H]4O[C@@H](CN)[C@@H](O)[C@H](O)[C@H]4N)[C@H]3O)[C@@H](O)[C@H](NC(=O)[C@@H](O)[C@H](O)CN)C[C@@H]2N)O1 [5/12] | 1 to 16 (≈ 1.4 to 22.4 µM) | ≤ 1 |
| NC[C@@H]1C[C@@H](O)[C@@H](N)[C@@H](O[C@H]2[C@H](O[C@@H]3O[C@H](CO)[C@@H](O[C@H]4O[C@@H](CN)[C@@H](O)[C@H](O)[C@H]4N)[C@H]3O)[C@@H](O)[C@H](NC(=O)[C@@H](O)[C@@H](O)CN)C[C@@H]2N)O1 [6/3] | 1 to 16 (≈ 1.4 to 22.4 µM) | ≤ 1 |
| NC[C@@H]1C[C@@H](O)[C@@H](N)[C@@H](O[C@H]2[C@H](O[C@@H]3O[C@H](CO)[C@@H](O[C@H]4O[C@@H](CN)[C@@H](O)[C@H](O)[C@H]4N)[C@H]3O)[C@@H](O)[C@H](NC(=O)[C@@H](O)[C@H](F)CN)C[C@@H]2N)O1 [7/3] | 1 to 16 (≈ 1.39 to 22.3 µM) | ≤ 1 |
| NC[C@@H]1C[C@@H](O)[C@@H](N)[C@@H](O[C@H]2[C@H](O[C@@H]3O[C@H](CO)[C@@H](O[C@H]4O[C@@H](CN)[C@@H](O)[C@H](O)[C@H]4N)[C@H]3O)[C@@H](O)[C@H](NC(=O)[C@@H](O)C(F)(F)CN)C[C@@H]2N)O1 [8/3] | 1 to 16 (≈ 1.36 to 21.7 µM) | ≤ 1 |

Other lines, results leading:

| MIC [1] [µg/mL] | MIC [2] [µg/mL] | Structure (SMILES) |
| --- | --- | --- |
| 1 to 16 (≈ 1.4 to 22.4 µM) | ≤ 1 | NC[C@@H](O)[C@H](O)C(=O)N[C@@H]1C[C@H](N)[C@@H](O[C@H]2O[C@H](CN)[C@@H](O)C[C@H]2N)[C@H](O[C@@H]2O[C@H](CO)[C@@H](O[C@H]3O[C@@H](CN)[C@@H](O)[C@H](O)[C@H]3N)[C@H]2O)[C@H]1O [1/11] |
| 1 to 16 (≈ 1.4 to 22.4 µM) | ≤ 1 | NC[C@@H]1O[C@H](O[C@H]2[C@@H](O)[C@H](O[C@@H]3[C@@H](O)[C@H](NC(=O)[C@@H](O)[C@@H](O)CN)C[C@H](N)[C@H]3O[C@H]3O[C@H](CN)[C@@H](O)C[C@H]3N)O[C@@H]2CO)[C@H](N)[C@@H](O)[C@@H]1O [2/3] |
| ≤ 1 | ≤ 1 | NC[C@@H](F)[C@H](O)C(=O)N[C@@H]1C[C@H](N)[C@@H](O[C@H]2O[C@H](CN)[C@@H](O)C[C@H]2N)[C@H](O[C@@H]2O[C@H](CO)[C@@H](O[C@H]3O[C@@H](CN)[C@@H](O)[C@H](O)[C@H]3N)[C@H]2O)[C@H]1O [3/3] |
